Data as given in US20040102364A1, “Backbone cyclized radiolabelled somatostatin analogs” (priority 2001, published 2004).
Read-outs that look alike come from different tables or passages of the source. One block for each molecule: values may come before it.

How the values were obtained:
human cloned SST-R2 = molecular target: T1, human cloned SST-R2 (Homo sapiens, UniProt P30874); experiment: Inhibition of 125I-Tyr11-SRIF binding to cloned human SST-R2 membranes (CHO cells)
T1 construct: expressed in transfected cells; host or cells: CHO cells
T1 sequence (P30874 whole entry): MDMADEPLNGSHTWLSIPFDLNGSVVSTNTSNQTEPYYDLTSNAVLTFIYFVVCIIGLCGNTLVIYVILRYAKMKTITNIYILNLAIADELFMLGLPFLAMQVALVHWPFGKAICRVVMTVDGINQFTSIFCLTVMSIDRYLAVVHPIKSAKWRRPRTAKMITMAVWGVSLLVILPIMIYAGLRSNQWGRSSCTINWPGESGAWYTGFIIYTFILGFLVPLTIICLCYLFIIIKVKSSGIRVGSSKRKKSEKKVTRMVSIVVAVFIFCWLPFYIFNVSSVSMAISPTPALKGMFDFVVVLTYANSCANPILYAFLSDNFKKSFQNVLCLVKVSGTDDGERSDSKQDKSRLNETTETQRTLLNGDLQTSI
Procedure: (§1) The SST analogs were tested for their potency in inhibition of the binding of ^125I-Tyr^11-SRIF (based on the method described by Raynor et. al., Molecular Pharmacology 43: 838, 1993) to membrane preparations expressing the transmembranal SST receptors (SST-R1, 2, 3, 4 or 5). The receptor preparations used for these tests were either from the cloned human receptors selectively and stably expressed in Chinese Hamster Ovary (CHO) cells or from cell lines naturally expressing the SST-Rs. […] The binding reactions were filtered, the filters were washed and the bound radioactivity was counted in β counter after addition of scintillation solution.

SST-R2 = SST-R2 (Homo sapiens, UniProt P30874); experiment: Inhibition of SRIF binding to SST-R2 (species not stated); settings: SST-R2
Chain of SST-R2 (P30874 whole entry): as above
Procedure: as §1, with “solution. […]” for “solution.”

rat SST-R4 = rat SST-R4 (Rattus norvegicus, UniProt P30937); experiment: Subtype selectivity binding, rat SST-R4
Chain of rat SST-R4 (P30937 whole entry): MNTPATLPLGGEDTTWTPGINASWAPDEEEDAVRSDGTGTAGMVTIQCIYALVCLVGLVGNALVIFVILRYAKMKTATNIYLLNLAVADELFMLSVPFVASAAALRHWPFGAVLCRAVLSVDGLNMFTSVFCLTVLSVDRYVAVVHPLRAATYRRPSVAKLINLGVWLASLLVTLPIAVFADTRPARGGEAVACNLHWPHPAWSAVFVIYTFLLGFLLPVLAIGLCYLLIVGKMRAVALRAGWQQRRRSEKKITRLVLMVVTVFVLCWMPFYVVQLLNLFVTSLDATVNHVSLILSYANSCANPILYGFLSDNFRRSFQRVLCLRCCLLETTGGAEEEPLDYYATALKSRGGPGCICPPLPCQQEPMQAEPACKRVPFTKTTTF
Procedure: as §1
(§2) MPS-30012-02, 30012-08 and 30012-24 were all re-synthesized naked, purified and radiolabelled with ^99mTc. In vitro binding studies on all three ^99mTc compounds was performed. 30012-05, 30012-08 and 30012-24 were screened for subtype selectivity analysis.

rat SST-R5 = molecular target: T2, rat SST-R5 (Rattus norvegicus, UniProt P30938); experiment: Subtype selectivity binding, rat SST-R5
T2 sequence (P30938 1-363): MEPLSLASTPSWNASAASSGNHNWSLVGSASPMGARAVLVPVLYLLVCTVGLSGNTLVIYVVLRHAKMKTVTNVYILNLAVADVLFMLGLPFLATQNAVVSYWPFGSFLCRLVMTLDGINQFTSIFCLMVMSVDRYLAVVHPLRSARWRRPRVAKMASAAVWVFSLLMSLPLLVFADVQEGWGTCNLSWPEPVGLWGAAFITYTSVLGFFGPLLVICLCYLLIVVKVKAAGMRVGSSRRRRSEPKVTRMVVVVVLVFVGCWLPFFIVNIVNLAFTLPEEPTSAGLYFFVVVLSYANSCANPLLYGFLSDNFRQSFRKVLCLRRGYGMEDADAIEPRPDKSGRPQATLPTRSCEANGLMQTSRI
Procedure: as §1, §2

rat SST-R2 = rat SST-R2 (Rattus norvegicus, UniProt P30680); experiment: Subtype selectivity binding, rat SST-R2
Chain of rat SST-R2 (P30680 whole entry): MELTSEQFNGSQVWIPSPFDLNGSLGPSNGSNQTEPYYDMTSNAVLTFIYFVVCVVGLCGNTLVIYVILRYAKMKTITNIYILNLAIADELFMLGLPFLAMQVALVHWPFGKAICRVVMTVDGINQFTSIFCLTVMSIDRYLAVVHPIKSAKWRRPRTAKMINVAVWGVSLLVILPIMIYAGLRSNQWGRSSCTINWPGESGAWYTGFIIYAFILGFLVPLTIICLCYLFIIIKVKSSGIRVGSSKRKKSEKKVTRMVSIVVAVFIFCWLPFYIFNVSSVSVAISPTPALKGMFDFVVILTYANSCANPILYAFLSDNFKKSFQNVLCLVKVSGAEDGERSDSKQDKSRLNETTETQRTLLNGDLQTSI
Procedure: as §1, §2

rat SST-R1 = rat SST-R1 (Rattus norvegicus, UniProt P28646); experiment: Subtype selectivity binding, rat SST-R1
Chain of rat SST-R1 (P28646 whole entry): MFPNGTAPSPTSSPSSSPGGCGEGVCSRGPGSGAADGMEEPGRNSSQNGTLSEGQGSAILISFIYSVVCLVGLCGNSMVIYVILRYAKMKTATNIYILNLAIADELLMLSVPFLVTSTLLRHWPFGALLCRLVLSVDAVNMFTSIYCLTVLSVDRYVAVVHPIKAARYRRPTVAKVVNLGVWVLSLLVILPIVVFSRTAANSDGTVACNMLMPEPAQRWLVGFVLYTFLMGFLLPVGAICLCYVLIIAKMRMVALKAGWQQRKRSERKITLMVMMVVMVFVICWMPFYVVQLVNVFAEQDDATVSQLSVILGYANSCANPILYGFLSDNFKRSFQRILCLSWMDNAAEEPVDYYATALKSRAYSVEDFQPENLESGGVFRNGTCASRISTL
Procedure: as §1, §2

rat SST-R3 = rat SST-R3 (Rattus norvegicus, UniProt P30936); experiment: Subtype selectivity binding, rat SST-R3
Chain of rat SST-R3 (P30936 whole entry): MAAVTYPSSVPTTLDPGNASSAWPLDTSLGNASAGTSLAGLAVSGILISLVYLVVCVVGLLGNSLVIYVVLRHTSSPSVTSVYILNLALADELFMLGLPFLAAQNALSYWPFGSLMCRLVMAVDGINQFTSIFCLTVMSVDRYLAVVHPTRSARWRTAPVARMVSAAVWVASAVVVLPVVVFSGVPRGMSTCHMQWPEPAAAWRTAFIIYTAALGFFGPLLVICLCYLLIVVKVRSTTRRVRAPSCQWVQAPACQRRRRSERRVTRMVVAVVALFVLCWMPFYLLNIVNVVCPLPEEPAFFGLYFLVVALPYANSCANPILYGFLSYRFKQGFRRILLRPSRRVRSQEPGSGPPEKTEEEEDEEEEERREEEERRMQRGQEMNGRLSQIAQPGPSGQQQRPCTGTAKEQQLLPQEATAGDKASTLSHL
Procedure: as §1, §2

[1] = human cloned receptor, read-out: Concentration (nM) of SST analogs to inhibit SRIF binding by 50%, SST-R 2
[2] = # rows: determined in rat somatostatin receptors, read-out: Concentration (nM) of SST analogs to inhibit SRIF binding by 50%, SST-R 4
[3] = rat SST-R4, read-out: Selectivity: IC50, nM, rat SST-R-4
[4] = # rows: determined in rat somatostatin receptors, read-out: Concentration (nM) of SST analogs to inhibit SRIF binding by 50%, SST-R 5
[5] = rat SST-R5, read-out: Selectivity: IC50, nM, rat SST-R-5
[6] = # rows: determined in rat somatostatin receptors, read-out: Concentration (nM) of SST analogs to inhibit SRIF binding by 50%, SST-R 2
[7] = rat SST-R2, read-out: Selectivity: IC50, nM, rat SST-R-2
[8] = # rows: determined in rat somatostatin receptors, read-out: Concentration (nM) of SST analogs to inhibit SRIF binding by 50%, SST-R 1
[9] = rat SST-R1, read-out: Selectivity: IC50, nM, rat SST-R-1
[10] = # rows: determined in rat somatostatin receptors, read-out: Concentration (nM) of SST analogs to inhibit SRIF binding by 50%, SST-R 3
[11] = rat SST-R3, read-out: Selectivity: IC50, nM, rat SST-R-3

IC50 (human cloned SST-R2; human cloned SST-R2, 95% confidence interval given, read-out: IC50 calculated from the binding results of Table 3): 119 nM
IC50 (human cloned SST-R2; [1]): 100 nM
Total Bound (3-[125I]tyrosyl11)somatostatin-14 (cpm), Run 1 (human cloned SST-R2; peptide conc. 10 nM): 8335 cpm
Total Bound (3-[125I]tyrosyl11)somatostatin-14 (cpm), Run 2 (human cloned SST-R2; peptide conc. 10 nM): 8820 cpm
Total Bound (3-[125I]tyrosyl11)somatostatin-14 (cpm), Run 3 (human cloned SST-R2; peptide conc. 10 nM): 8098 cpm
Total Bound (3-[125I]tyrosyl11)somatostatin-14 (cpm), Run 1 (human cloned SST-R2; peptide conc. 100 nM): 5398 cpm
Total Bound (3-[125I]tyrosyl11)somatostatin-14 (cpm), Run 2 (human cloned SST-R2; peptide conc. 100 nM): 5328 cpm
Total Bound (3-[125I]tyrosyl11)somatostatin-14 (cpm), Run 3 (human cloned SST-R2; peptide conc. 100 nM): 5679 cpm
Total Bound (3-[125I]tyrosyl11)somatostatin-14 (cpm), Run 1 (human cloned SST-R2; peptide conc. 1000 nM): 1941 cpm
Total Bound (3-[125I]tyrosyl11)somatostatin-14 (cpm), Run 2 (human cloned SST-R2; peptide conc. 1000 nM): 3169 cpm
Total Bound (3-[125I]tyrosyl11)somatostatin-14 (cpm), Run 3 (human cloned SST-R2; peptide conc. 1000 nM): 2024 cpm
Total Bound (3-[125I]tyrosyl11)somatostatin-14 (cpm), Run 1 (human cloned SST-R2; peptide conc. 10000 nM): 917 cpm
Total Bound (3-[125I]tyrosyl11)somatostatin-14 (cpm), Run 2 (human cloned SST-R2; peptide conc. 10000 nM): 1106 cpm
Total Bound (3-[125I]tyrosyl11)somatostatin-14 (cpm), Run 3 (human cloned SST-R2; peptide conc. 10000 nM): 2281 cpm
Molecule: C[C@@H](O)[C@@H]1NC(=O)[C@H](CCCCN)NC(=O)[C@@H](Cc2c[nH]c3ccccc23)NC(=O)[C@H](Cc2ccccc2)NC(=O)[C@@H]2CSSC[C@H](NC1=O)C(=O)N([C@@H](Cc1ccccc1)C(N)=O)CCCNC(=O)CCCN(C(=O)CNC(=O)CNC(=O)CNC(=O)CS)[C@@H](Cc1ccccc1)C(=O)N2 [PTR 3261, MAG3-PheC3-Cys-Phe-(D)Trp-Lys-Thr-Cys-PheN3-NH2]

SRIF Inhibited (%) 10 nM (SST-R2; 10 nM): 20%
SRIF Inhibited (%) 100 nM (SST-R2; 100 nM): 54%
Molecule: In-DTPA-b-Ala-Phe(C3**)-Cys*-Phe-(D)Trp-Lys-Thr-Cys*-Phe(N3**)-NH2 [PTR 3349]

IC50 (rat SST-R4; [2]): 20 nM
IC50 (rat SST-R4; [3]): 20 nM
IC50 (rat SST-R5; [4]): 3.7 nM
IC50 (rat SST-R5; [5]): 3.7 nM
IC50 (rat SST-R2; [6]): 0.44 nM
IC50 (rat SST-R2; [7]): 0.44 nM
IC50 (rat SST-R1; [8]): 402 nM
IC50 (rat SST-R1; [9]): 402 nM
IC50 (rat SST-R3; [10]): 110 nM
IC50 (rat SST-R3; [11]): 110 nM
Molecule: ReO-MA-Gly-Gly-Gly-6-aminohexanoic acid-Dab*-Phe-Trp-(D)Trp-Lys-Thr-Phe-GlyC3*-NH2 [PTR 3401]

SRIF Inhibited (%) 10 nM (SST-R2; 10 nM): 38%
SRIF Inhibited (%) 100 nM (SST-R2; 100 nM): 51%
Molecule: In-DTPA-Gly-Phe(C3**)-Cys*-Phe-(D)Trp-Lys-Thr-Cys*-Phe(N3**)-NH2 [PTR 3347]

IC50 (human cloned SST-R2; [1]): 1.14 nM
Molecule: ReO-MA-Dpr(Gly)-Dab*-Phe-Trp-(D)Trp-Lys-Thr-Phe-GlyC3*-NH2 [PTR 3395]

IC50 (rat SST-R4; [2]): 15 nM
IC50 (rat SST-R4; [3]): 15 nM
binding to SST-R5 (in words) (rat SST-R5): binds
IC50 (rat SST-R5; [4]): 1.3 nM
IC50 (rat SST-R5; [5]): 1.3 nM
IC50 (rat SST-R2; [6]): 1.6 nM
IC50 (rat SST-R2; [7]): 1.6 nM
IC50 (rat SST-R1; [8]): 156 nM
IC50 (rat SST-R1; [9]): 156 nM
IC50 (rat SST-R3; [10]): 103 nM
IC50 (rat SST-R3; [11]): 103 nM
Molecule: ReO-MA-Dpr(Gly)-βAla-Dab*-Phe-Trp-(D)Trp-Lys-Thr-Phe-GlyC3*-NH2 [PTR 3399]

SRIF Inhibited (%) 10 nM (SST-R2; 10 nM): 14%
SRIF Inhibited (%) 100 nM (SST-R2; 100 nM): 59%
Molecule: In-DTPA-5-aminopentanoic acid-Phe(C3**)-Cys*-Phe-(D)Trp-Lys-Thr-Cys*-Phe(N3**)-NH2 [PTR 3353]

IC50 Screen SRIF Inhibited (%) 0.01 nM (SST-R2; IC50 Screen, 0.01 nM): −16%
IC50 Screen SRIF Inhibited (%) 0.1 nM (SST-R2; IC50 Screen, 0.1 nM): −3.8%
IC50 Screen SRIF Inhibited (%) 1 nM (SST-R2; IC50 Screen, 1 nM): 10%
IC50 Screen SRIF Inhibited (%) 10 nM (SST-R2; IC50 Screen, 10 nM): 44%
IC50 Screen SRIF Inhibited (%) 100 nM (SST-R2; IC50 Screen, 100 nM): 76%
Quick Screen SRIF Inhibited (%) 10 nM (SST-R2; Quick Screen, 10 nM): 37%
Quick Screen SRIF Inhibited (%) 100 nM (SST-R2; Quick Screen, 100 nM): 79%
Molecule: In-DTPA-5-aminopentanoic acid-Dab*-Phe-Trp-(D)Trp-Lys-Thr-Phe-GlyC3*-NH2 [PTR 3343]
